# Assay results as given in patent US20150250167A1, “COMPOSITION FOR NOXIOUS ORGANISMS-CONTROLLING AGENT AND METHOD FOR USING THE SAME” (priority 2001, published 2015).
# Where two headings read alike, the source gives them in different places.
# Columns and labels:
# [1] = system: Green Peach Aphid (Myzus persicae); assay: Insecticidal test on green peach aphid, spraying of Chinese cabbage, control value; format: in vivo; details: single agent, 6 days after spraying
# Cutworm = assay: Test for the effect against cutworm on beet, drench, number of injured hills per 100 hills; format: in vivo; details: 50 g ai/10a
# Procedure: Test for the Effect Against Cutworm on Beet
# Beet seedlings (variety: Monoace S) planted in a paper pot was treated with 3 L/m^2 of a solution of an agent diluted to a predetermined concentration, by the method of drench. Just after the drench, the plant was set. Predetermined days after the setting, the number of injured hills per 100 hills was counted.
# [2] = system: Small Brown Planthopper (Laodelphax striatellus); assay: Control of small brown planthopper on paddyfield rice by nursery box application, number of parasitic insects; format: in vivo; details: single agent
# Procedure: (§1) Test for the Control of Small Brown Planthopper (Laodelphax striatellus) and Rice Leafroller (Cnaphalocrosis medinalis) on Paddyfield Rice Plant by Nursery Box Application
# (§2) Fifty grams of a granular preparation was applied to rice plant (variety: Nihombare) cultured in a nursery box, after which the rice plant was transplanted to the main paddy field (in the middle of May). The controlling effect against small brown planthopper was evaluated by investigating the number of parasitic insects on 30 hills per each plot, 40 days and 60 days after the transplantation. The controlling effect against rice leafroller was evaluated by investigating the number of injured leaves on 100 hills per each plot, 50 days after the transplantation.
# [3] = system: Rice Leafroller (Cnaphalocrosis medinalis); assay: Control of rice leafroller on paddyfield rice by nursery box application, number of injured leaves; format: in vivo; details: single agent
# Procedure: as §1, §2
# [4] = system: Brown Rice Planthopper (Nilaparvata lugens); assay: Insecticidal test on brown rice planthopper, rice seedling dipping; format: in vivo; details: single agent; for Death rate (%) After 1 days: after 1 day
# Source text: Insecticidal Test on Brown Rice Planthopper (Nilaparvata lugens)
# Rice seedlings (variety: Nihombare) were dipped in a solution of an agent diluted to a predetermined concentration for 30 seconds. After air-dryness, each seedling was introduced into a glass-made test tube having a diameter of 1.8 cm and a height of 20 cm, and inoculated with ten 3rd inster nimphs of brown rice planthopper. Then, the test tube was stoppered with cotton. One day after and four days after the treatment, the number of alive insects was counted, based on which the insect death rate was calculated.
# [5] = system: Smaller Tea Tortrix (Adoxophyes orana fosciota); assay: Insecticidal test on smaller tea tortrix, tea leaf dipping; format: in vivo; details: 4th instar larvae, 25° C.; for pest or weed control at 1 ppm / pest or weed control at 50 ppm / pest or weed control at 0.1 ppm: Adoxophyes orana, foliar; for pest or weed control at 50 ppm: single agent 50 ppm
# Procedure: Insecticidal Test on Smaller Tea Tortrix (Adoxophyes orana fosciota)
# Tea leaves were dipped in a solution of a chemical diluted to a prescribed concentration for 30 seconds. […] Four days and seven days after the treatment, the number of alive insects were counted, from which percentage of death was calculated.
# [6] = system: Resistant Strain of Two-Spotted Spider Mite; details: 100 ppm, single agent, 2 days after spraying
# [7] = system: Southern Root-Knot Nematode (Meloidogyne incognita); assay: Test for the effect on southern root-knot nematode, soil blending with granular preparation; format: in vivo; details: 300 g ai/10a, single agent, 60 days after treatment
# Source text: Test for the Effect on Southern Root-Knot Nematode (Meloidogyne incognita)
# Two killograms of a soil polluted with southern root-knot nematode was blended with a predetermined dose of a granular preparation. The mixture was filled into a 1/5,000 are Wagner pot. After sowing melon seeds and carrying out the treatment of the present invention, the pot was left to stand in a greenhouse. Sixty days after the treatment, 25 g of the soil was sampled out, the nematode was separated therefrom according to the method of Berman, and the numbers of nematodes were counted after 48 hours.
# In the tables, “ai” means active ingredient.
# Aphid = assay: Control of aphid on cabbage by soil treatment, number of parasitic insects; format: in vivo; details: 20 mg ai/hill, 21 days after transplanting
# Procedure: (§3) Test for the Control of Diamondback Moth (Plutella xyloxtella) and Aphid on Cabbage by Soil Treatment
# A granular preparation was mixed into bed soil, and the mixture was filled into a cell seedling box and sown with seeds of cabbage (variety: YR Seitoku). Otherwise, cell seedling planted cabbage was treated with the granular agent either by a treatment in the foliage leaf extraction period, or by a pre-transplanting treatment, or by a pricking-in hole treatment, or by a plant foot treatment after the planting. […]
# [8] = system: Diamondback Moth (Plutella xyloxtella); assay: Control of diamondback moth on cabbage by soil treatment, number of parasitic insects; format: in vivo; details: 20 mg ai/hill, 21 days after transplanting
# Procedure: as §3
# A granular preparation was mixed into bed soil, and the mixture was filled into a cell seedling box and sown with seeds of cabbage (variety: YR Seitoku). Otherwise, cell seedling planted cabbage was treated with the granular agent either by a treatment in the foliage leaf extraction period, or by a pre-transplanting treatment, or by a pricking-in hole treatment, or by a plant foot treatment after the planting. Twenty one days after the transplanting (in the middle of June), the number of parasitic insects was counted on 30 hills in the case of diamondback moth and on 10 hills in the case of aphid.
# [9] = Myzus persicae, 144 h, read-out: Control degree (%)
# [10] = 96 h, single agent 1 ppm, read-out: Death rate (%) After 4 days
# [11] = 168 h, single agent 1 ppm, read-out: Death rate (%) After 7 days
compound,measurement,setting,value
Cc1c(COC(=O)[C@@H]2[C@H](/C=C(\Cl)C(F)(F)F)C2(C)C)cccc1-c1ccccc1 (racemic) [bifenthrin],pest or weed control at 0.1 ppm,[1]; [9],80%
COP(=O)(NC(C)=O)SC (stereo not drawn) [acephate],"Number of injured hills per 100 hills, After 60 days",Cutworm,2
same,"Number of injured hills per 100 hills, After 90 days",Cutworm,14
same,"Number of injured hills per 100 hills, After 120 days",Cutworm,24
same,pest or weed control at 10 ppm,[1]; [9],48%
CCOC(=O)CCN(SN(C)C(=O)Oc1cccc2c1OC(C)(C)C2)C(C)C [benfuracarb],Number of parasitic planthoppers per 30 hills After 40 days,[2]; 2.5 g ai/Box,78
same,Number of parasitic planthoppers per 30 hills After 60 days,[2]; 2.5 g ai/Box,244
same,Percentage of injured leaves (%) After 50 days,[3]; 2.5 g ai/Box,1.13%
CC(C)N1C(=O)N(c2ccccc2)CS/C1=N\C(C)(C)C [buprofezin],Death rate (%) After 1 days,[4]; 0.3 ppm,0%
same,Death rate (%) After 5 days,[4]; 0.3 ppm,45%
"CCOCn1c(-c2ccc(Cl)cc2)c(C#N)c(Br)c1C(F)(F)F [chlorfenapyr, reference compound]",pest or weed control at 1 ppm,[5]; [10],0%
same,pest or weed control at 1 ppm,[5]; [11],0%
"O=C(NC(=O)c1c(F)cccc1F)Nc1cc(Cl)c(Oc2ncc(C(F)(F)F)cc2Cl)c(Cl)c1 [chlorfluazuron, reference compound]",pest or weed control at 1 ppm,[5]; [10],10%
same,pest or weed control at 1 ppm,[5]; [11],30%
"CCOP(=S)(OCC)Oc1nc(Cl)c(Cl)cc1Cl [chlorpyriphos, reference compound]",pest or weed control at 1 ppm,[5]; [10],10%
same,pest or weed control at 1 ppm,[5]; [11],10%
CC(C)([CH2][Sn]([CH2]C(C)(C)c1ccccc1)([CH2]C(C)(C)c1ccccc1)[O][Sn]([CH2]C(C)(C)c1ccccc1)([CH2]C(C)(C)c1ccccc1)[CH2]C(C)(C)c1ccccc1)c1ccccc1 [fenbutatin oxide],Death rate (%),[6],50%
"Cc1nn(C)c(Oc2ccccc2)c1C=NOCc1ccc(C(=O)OC(C)(C)C)cc1 [fenpyroximate, reference compound]",pest or weed control at 50 ppm,"[5]; 96 h, read-out: Death rate (%) After 4 days",0%
same,pest or weed control at 50 ppm,"[5]; 168 h, read-out: Death rate (%) After 7 days",0%
O=C(NC(=O)c1c(F)cccc1F)Nc1ccc(Oc2ccc(C(F)(F)F)cc2Cl)cc1F [flufenoxuron],pest or weed control at 50 ppm,"[1]; Myzus persicae, 144 h, 50 ppm, read-out: Control degree (%)",11%
CCOP(=O)(SC(C)CC)N1CCSC1=O (stereo not drawn) [fosthiazate],Number of nematodes per 25 g of soil sample,[7],7
CC(C)(COCc1cccc(Oc2ccccc2)c1)c1ccc(OC(F)(F)Br)cc1 [halfenprox],Death rate (%),[6],35%
O=[N+]([O-])NC1=NCCN1Cc1ccc(Cl)nc1 [imidacloprid],pest or weed control at 0.1 ppm,[1]; [9],69%
same,Number of parasitic planthoppers per 30 hills After 40 days,[2]; 1 g ai/Box,0
same,Number of parasitic planthoppers per 30 hills After 60 days,[2]; 1 g ai/Box,29
same,"Number of parasitic insects per 30 hills, Aphid",Aphid; picking-in hole treatment,16
same,"Number of parasitic insects per 30 hills, Aphid",Aphid; plant foot treatment,13
same,"Number of parasitic insects per 30 hills, Aphid",Aphid; pre-transplanting treatment,10
same,Death rate (%) After 1 days,[4]; 0.1 ppm,35%
same,Death rate (%) After 5 days,[4]; 0.1 ppm,35%
same,Percentage of injured leaves (%) After 50 days,[3]; 1 g ai/Box,1.63%
same,"Number of parasitic insects per 30 hills, Diamondback moth",[8]; picking-in hole treatment,40
same,"Number of parasitic insects per 30 hills, Diamondback moth",[8]; plant foot treatment,38
same,"Number of parasitic insects per 30 hills, Diamondback moth",[8]; pre-transplanting treatment,35
"COC(=O)N(C(=O)N1CO[C@@]2(C(=O)OC)Cc3cc(Cl)ccc3C2=N1)c1ccc(OC(F)(F)F)cc1 [indoxacarb, reference compound]",Death rate (%) After 4 days,[5]; single agent 1 ppm,10%
same,Death rate (%) After 7 days,[5]; single agent 1 ppm,40%
"COc1cccc(C(=O)NN(C(=O)c2cc(C)cc(C)c2)C(C)(C)C)c1C [methoxyfenozide, reference compound]",pest or weed control at 0.1 ppm,"[5]; 96 h, single agent 0.1 ppm, read-out: Death rate (%) After 4 days",0%
same,pest or weed control at 0.1 ppm,"[5]; 168 h, single agent 0.1 ppm, read-out: Death rate (%) After 7 days",50%
CNC(=O)O/N=C(\SC)C(=O)N(C)C [oxamyl],Number of nematodes per 25 g of soil sample,[7],13
CC1=NNC(=O)N(/N=C/c2cccnc2)C1 [pymetrozin],Death rate (%) After 1 days,[4]; 100 ppm,10%
same,Death rate (%) After 5 days,[4]; 100 ppm,40%
CC(C)(C)c1ccc(CSc2cnn(C(C)(C)C)c(=O)c2Cl)cc1 [pyridaben],pest or weed control at 10 ppm,[1]; [9],43%
CCOc1ccc([Si](C)(C)CCCc2ccc(F)c(Oc3ccccc3)c2)cc1 [silafluofen],Death rate (%) After 1 days,[4]; 1 ppm,30%
same,Death rate (%) After 5 days,[4]; 1 ppm,30%
CCc1nn(C)c(C(=O)NCc2ccc(C(C)(C)C)cc2)c1Cl [tebufenpyrad],Death rate (%),[6],60%
emamectin-benzoate [reference compound],Death rate (%) After 4 days,[5]; single agent 0.1 ppm,10%
same,Death rate (%) After 7 days,[5]; single agent 0.1 ppm,45%
milbemectin,Control degree (%),[1]; 1 ppm,82%
